Holding throughout (test): relative viability (nuclei count vs DMSO), 5 days (fraction); higher = more cells survive
Compound in test [1]: CCn1c(-c2nonc2N)nc2c(C#CC(C)(C)O)ncc(OC[C@H]3CCCNC3)c21 + CC(C)C[C@H](NC(=O)[C@H](Cc1ccccc1)NC(=O)c1cnccn1)B(O)O [Bortezomib] (partner 0.002 µM)
The method in brief: (§1)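 Nuclei were stained with Hoechst during a one-step fixation (final 0.05% Triton X-100, 1% formaldehyde, 1 ug/ml Hoechst) carried out 5 days after dosing, then counted on 4× images. The cells, lung cancer lines in 1536-well plates, had been dosed by pin tool the day after seeding with one drug alone or a fixed anchor-drug dose plus five library-drug doses (not always all listed) in √10 steps. Relative viability is the nuclei count in treated wells divided by that in vehicle wells, and each value is the median of duplicate plates.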

Compound in test [2]: CCn1c(-c2nonc2N)nc2c(C#CC(C)(C)O)ncc(OC[C@H]3CCCNC3)c21 + COc1cc2c(Oc3ccc(NC(=O)C4(C(=O)Nc5ccc(F)cc5)CC4)cc3F)ccnc2cc1OCCCN1CCOCC1 [Foretinib] (partner 0.25 µM)
The gist of the method: as §1

Compound in test [3]: CCn1c(-c2nonc2N)nc2c(C#CC(C)(C)O)ncc(OC[C@H]3CCCNC3)c21 + C[C@]1(O)C[C@@H](c2nc(-c3ccc4ccc(-c5ccccc5)nc4c3)c3c(N)nccn32)C1 [Linsitinib] (partner 1 µM)
The gist of the method: as §1

Compound in the test “BAM7 + Tozasertib”: CCOC1=CC=CC=C1N=NC2=C(NN(C2=O)C3=NC(=CS3)C4=CC=CC=C4)C [BAM7] + Cc1cc(Nc2cc(N3CCN(C)CC3)nc(Sc3ccc(NC(=O)C4CC4)cc3)n2)n[nH]1 [Tozasertib] (partner 0.1 µM)
The method in brief: as §1

Take PC-3 [JPC-3]: the relative viability in test [1] (first compound 0.01 µM) was determined as 0.82; in test [1] (first compound 0.03162 µM) it was 0.852; in test [1] (first compound 0.1 µM), 0.796; in test [1] (first compound 0.3162 µM), 0.781; in test [1] (first compound 1 µM), 0.808; in test [2] (first compound 0.01 µM) it was 0.982. For the same cell line, the relative viability in test [2] (first compound 0.03162 µM) is 1.04; in test [2] (first compound 0.1 µM) it was 1.12; in test [2] (first compound 0.3162 µM) it was 0.902; in test [2] (first compound 1 µM), 1.08; in test [3] (first compound 0.01 µM) it was 0.959; in test [3] (first compound 0.03162 µM), 0.933. The relative viability was 0.98 in test [3] (first compound 0.1 µM); 0.927 in test [3] (first compound 0.3162 µM); 0.932 in test [3] (first compound 1 µM); 0.776 with BAM7 + Tozasertib (first compound 0.5 µM); 0.7 with BAM7 + Tozasertib (first compound 5 µM); 0.72 with BAM7 + Tozasertib (first compound 15.81 µM). For the same cell line, the relative viability with BAM7 + Tozasertib (first compound 50 µM) was found to be 0.735.

On to PC-14, for which the relative viability in test [1] (first compound 0.01 µM) amounted to 0.966; in test [1] (first compound 0.03162 µM), 0.84; in test [1] (first compound 0.1 µM), 0.956; in test [1] (first compound 0.3162 µM) it was 0.813; in test [1] (first compound 1 µM), 0.852; in test [2] (first compound 0.01 µM), 0.933. Besides, the relative viability in test [2] (first compound 0.03162 µM) was determined as 1.02; in test [2] (first compound 0.1 µM), 1.02; in test [2] (first compound 0.3162 µM), 0.894; in test [2] (first compound 1 µM) it was 1; in test [3] (first compound 0.01 µM), 0.967; in test [3] (first compound 0.03162 µM), 0.975. The relative viability was 0.963 in test [3] (first compound 0.1 µM); 0.849 in test [3] (first compound 0.3162 µM); 0.919 in test [3] (first compound 1 µM); 0.58 in the test with BAM7 + Tozasertib (first compound 0.5 µM); 0.595 in the test with BAM7 + Tozasertib (first compound 5 µM); 0.591 with BAM7 + Tozasertib (first compound 15.81 µM). Further, in the test with BAM7 + Tozasertib (first compound 50 µM), the relative viability came to 0.557.

For RERF-LC-KJ, the relative viability in test [1] (first compound 0.01 µM) was determined as 0.997; in test [1] (first compound 0.03162 µM), 1.11; in test [1] (first compound 0.1 µM), 1.06; in test [1] (first compound 0.3162 µM), 0.974; in test [1] (first compound 1 µM), 1.2; in test [2] (first compound 0.01 µM), 0.858. Moreover, the relative viability in test [2] (first compound 0.03162 µM) stood at 0.821; in test [2] (first compound 0.1 µM) it was 0.921; in test [2] (first compound 0.3162 µM), 0.767; in test [2] (first compound 1 µM), 0.973; in test [3] (first compound 0.01 µM), 0.91; in test [3] (first compound 0.03162 µM), 0.871. For the same cell line, the relative viability worked out at 0.855 in test [3] (first compound 0.1 µM); 0.856 in test [3] (first compound 0.3162 µM); 0.903 in test [3] (first compound 1 µM); 0.413 in the test with BAM7 + Tozasertib (first compound 0.5 µM); 0.264 in the test with BAM7 + Tozasertib (first compound 5 µM); 0.231 with BAM7 + Tozasertib (first compound 15.81 µM). Besides, the relative viability with BAM7 + Tozasertib (first compound 50 µM) amounted to 0.249.

With SK-LU-1, the relative viability in test [1] (first compound 0.01 µM) came out at 1.08; in test [1] (first compound 0.03162 µM), 1.08; in test [1] (first compound 0.1 µM) it was 0.707; in test [1] (first compound 0.3162 µM), 0.992; in test [1] (first compound 1 µM) it was 1.22; in test [2] (first compound 0.01 µM), 0.754. Moreover, the relative viability in test [2] (first compound 0.03162 µM) is 0.896; in test [2] (first compound 0.1 µM) it was 0.737; in test [2] (first compound 0.3162 µM), 0.816; in test [2] (first compound 1 µM), 0.749; in test [3] (first compound 0.01 µM), 1.06; in test [3] (first compound 0.03162 µM), 1.23. Also, the relative viability is 1.22 in test [3] (first compound 0.1 µM); 1.19 in test [3] (first compound 0.3162 µM); 1.09 in test [3] (first compound 1 µM); 0.332 with BAM7 + Tozasertib (first compound 0.5 µM); 0.449 with BAM7 + Tozasertib (first compound 5 µM); 0.341 with BAM7 + Tozasertib (first compound 15.81 µM). The relative viability with BAM7 + Tozasertib (first compound 50 µM) is 0.323.

As for SW 1573, the relative viability in test [1] (first compound 0.01 µM) worked out at 0.993; in test [1] (first compound 0.03162 µM), 0.946; in test [1] (first compound 0.1 µM), 0.864; in test [1] (first compound 0.3162 µM), 0.908; in test [1] (first compound 1 µM), 0.646; in test [2] (first compound 0.01 µM), 0.89. The relative viability came to 0.799 in test [2] (first compound 0.03162 µM); 0.812 in test [2] (first compound 0.1 µM); 0.728 in test [2] (first compound 0.3162 µM); 0.763 in test [2] (first compound 1 µM); 0.827 in test [3] (first compound 0.01 µM); 0.793 in test [3] (first compound 0.03162 µM). In addition, the relative viability in test [3] (first compound 0.1 µM) amounted to 0.81; in test [3] (first compound 0.3162 µM) it was 0.7; in test [3] (first compound 1 µM) it was 0.772; in the test with BAM7 + Tozasertib (first compound 0.5 µM), 0.213; in the test with BAM7 + Tozasertib (first compound 5 µM), 0.174; with BAM7 + Tozasertib (first compound 15.81 µM), 0.165. Further, the relative viability in the test with BAM7 + Tozasertib (first compound 50 µM) came to 0.191.

Consider UMC-11, for which the relative viability in test [1] (first compound 0.01 µM) turned out to be 0.676; in test [1] (first compound 0.03162 µM), 0.905; in test [1] (first compound 0.1 µM), 0.833; in test [1] (first compound 0.3162 µM), 0.48; in test [1] (first compound 1 µM), 0.661; in test [2] (first compound 0.01 µM) it was 1.01. For the same cell line, the relative viability in test [2] (first compound 0.03162 µM) was found to be 1.06; in test [2] (first compound 0.1 µM) it was 1.01; in test [2] (first compound 0.3162 µM), 0.931; in test [2] (first compound 1 µM), 1.04; in test [3] (first compound 0.01 µM), 0.991; in test [3] (first compound 0.03162 µM), 1.05. Also, the relative viability in test [3] (first compound 0.1 µM) is 0.974; in test [3] (first compound 0.3162 µM) it was 0.976; in test [3] (first compound 1 µM), 1.04; with BAM7 + Tozasertib (first compound 0.5 µM), 0.2; with BAM7 + Tozasertib (first compound 5 µM), 0.202; with BAM7 + Tozasertib (first compound 15.81 µM), 0.196. Besides, in the test with BAM7 + Tozasertib (first compound 50 µM), the relative viability amounted to 0.198.

The values above are taken from the supplement of paper PMC10307832.
